Tests used:
Experiment in all cases: Kinase Profiler 10 μM panel
FGFR2(h) = FGFR2(h) (Homo sapiens (Human), UniProt P21802)
Experimental: (§1) In vitro kinase assays were conducted using Kinase Profiler services provided by Eurofins. The experimental method was as follows: the small molecule compound to be tested (0.001-10 μM), the protein kinase to be tested were incubated with a buffer containing substrate, 10 mM magnesium acetate, and [γ-^33P-ATP], the reaction was started by adding Mg\TPmix, after incubation for a period of time at room temperature, a 3% phosphate solution was added to the buffer to stop the reaction. Subsequently, 10 μL of the reaction mixture was quantitatively pipetted onto P30 filter paper, which was washed three times with 75 mM phosphate solution and then once with methanol. The P30 filter paper was air-dried and scintillation fluid was added for scintillation counting.

CK1ϵ(h) = CK1ϵ(h) (Homo sapiens (Human), UniProt P49674)
Experimental: as §1

CK1γ3(h) = CK1γ3(h) (Homo sapiens (Human), UniProt Q9Y6M4)
Experimental: as §1

DDR2(h) = DDR2(h) (Homo sapiens (Human), UniProt Q16832)
Experimental: as §1

CLIK1(h) = CLIK1(h) (Homo sapiens (Human), UniProt Q8TDR2)
Experimental: (§2) The experimental method was as follows: the small molecule compound to be tested (0.001-10 μM), the protein kinase to be tested were incubated with a buffer containing substrate, 10 mM magnesium acetate, and [γ-^33P-ATP], the reaction was started by adding Mg\TPmix, after incubation for a period of time at room temperature, a 3% phosphate solution was added to the buffer to stop the reaction. Subsequently, 10 μL of the reaction mixture was quantitatively pipetted onto P30 filter paper, which was washed three times with 75 mM phosphate solution and then once with methanol. The P30 filter paper was air-dried and scintillation fluid was added for scintillation counting.

TLK1(h) = TLK1(h) (Homo sapiens (Human), UniProt Q9UKI8)
Experimental: as §1

SGK3(h) = SGK3(h) (Homo sapiens (Human), UniProt Q96BR1)
Experimental: as §1

CLK3(h) = CLK3(h) (Homo sapiens (Human), UniProt P49761)
CLK3(h), sequence (P49761 whole entry): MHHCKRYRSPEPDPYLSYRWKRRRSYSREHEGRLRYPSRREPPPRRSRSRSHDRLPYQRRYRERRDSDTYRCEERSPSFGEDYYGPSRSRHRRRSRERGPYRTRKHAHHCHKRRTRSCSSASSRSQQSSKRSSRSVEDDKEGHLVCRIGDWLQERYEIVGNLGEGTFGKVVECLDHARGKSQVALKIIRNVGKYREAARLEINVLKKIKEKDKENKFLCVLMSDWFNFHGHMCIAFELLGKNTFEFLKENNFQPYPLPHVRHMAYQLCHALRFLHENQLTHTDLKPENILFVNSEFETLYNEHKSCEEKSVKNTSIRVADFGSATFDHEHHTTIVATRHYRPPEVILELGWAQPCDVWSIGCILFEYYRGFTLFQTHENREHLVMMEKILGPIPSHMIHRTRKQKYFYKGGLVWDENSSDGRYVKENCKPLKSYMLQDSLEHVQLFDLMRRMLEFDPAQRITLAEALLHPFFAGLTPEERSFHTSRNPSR
Experimental: as §1

[1] = molecular target: PI3 Kinase (p110a/p85a)(h) (Homo sapiens (Human), UniProt P42336)
Experimental: as §2

PAK3(h) = PAK3(h) (Homo sapiens (Human), UniProt O75914)
PAK3(h), sequence (O75914 whole entry): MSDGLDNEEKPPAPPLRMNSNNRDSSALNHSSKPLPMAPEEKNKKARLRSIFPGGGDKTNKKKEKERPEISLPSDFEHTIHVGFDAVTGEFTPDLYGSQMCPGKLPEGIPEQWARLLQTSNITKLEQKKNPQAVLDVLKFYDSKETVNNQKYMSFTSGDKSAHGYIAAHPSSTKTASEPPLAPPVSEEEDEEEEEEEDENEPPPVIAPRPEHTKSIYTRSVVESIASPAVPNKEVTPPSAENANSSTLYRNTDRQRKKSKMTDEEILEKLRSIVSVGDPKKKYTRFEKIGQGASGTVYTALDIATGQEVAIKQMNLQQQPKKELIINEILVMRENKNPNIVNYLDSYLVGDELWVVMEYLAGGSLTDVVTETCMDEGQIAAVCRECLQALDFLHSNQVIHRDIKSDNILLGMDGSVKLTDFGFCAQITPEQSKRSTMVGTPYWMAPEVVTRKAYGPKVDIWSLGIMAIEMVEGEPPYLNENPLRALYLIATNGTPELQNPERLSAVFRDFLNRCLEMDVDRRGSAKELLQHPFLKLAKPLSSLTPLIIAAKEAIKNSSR
Experimental: as §1

PKAcβ(h) = PKAcβ(h) (Homo sapiens (Human), UniProt P22694)
Experimental: as §1

CDK2/cyclinA(h) = CDK2/cyclinA(h) (Homo sapiens (Human), UniProt P24941)
Experimental: as §1

SBK1(h) = SBK1(h) (Homo sapiens (Human), UniProt Q52WX2)
Experimental: as §1

TAO2(h) = TAO2(h) (Homo sapiens (Human), UniProt Q9UL54)
Experimental: as §1

Bmx(h) = Bmx(h) (Homo sapiens (Human), UniProt P51813)
Experimental: as §1

PKCδ(h) = PKCδ(h) (Homo sapiens (Human), UniProt Q05655)
PKCδ(h), sequence (Q05655 whole entry): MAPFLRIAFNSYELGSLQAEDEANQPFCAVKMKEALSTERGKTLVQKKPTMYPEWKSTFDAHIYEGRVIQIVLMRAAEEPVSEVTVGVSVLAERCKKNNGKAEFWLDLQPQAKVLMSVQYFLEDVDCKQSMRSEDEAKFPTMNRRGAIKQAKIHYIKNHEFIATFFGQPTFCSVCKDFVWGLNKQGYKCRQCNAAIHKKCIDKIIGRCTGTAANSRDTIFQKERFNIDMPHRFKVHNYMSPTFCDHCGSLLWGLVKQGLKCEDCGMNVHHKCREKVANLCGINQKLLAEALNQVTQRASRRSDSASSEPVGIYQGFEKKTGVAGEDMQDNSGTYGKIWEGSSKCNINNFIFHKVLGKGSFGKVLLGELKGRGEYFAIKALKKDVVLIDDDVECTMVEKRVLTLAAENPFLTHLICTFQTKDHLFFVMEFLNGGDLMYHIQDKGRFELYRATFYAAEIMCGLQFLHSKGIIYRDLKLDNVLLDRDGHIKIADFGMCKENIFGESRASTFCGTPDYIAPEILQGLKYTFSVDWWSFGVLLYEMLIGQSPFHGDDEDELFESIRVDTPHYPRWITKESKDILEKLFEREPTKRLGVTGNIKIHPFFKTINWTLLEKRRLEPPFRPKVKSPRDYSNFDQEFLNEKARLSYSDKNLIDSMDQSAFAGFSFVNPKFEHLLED
Experimental: as §1

CK1δ(h) = CK1δ(h) (Homo sapiens (Human), UniProt P48730)
Experimental: as §1

eEF-2K(h) = eEF-2K(h) (Homo sapiens (Human), UniProt O00418)
Experimental: as §1

ULK3(h) = ULK3(h) (Homo sapiens (Human), UniProt Q6PHR2)
ULK3(h), sequence (Q6PHR2 whole entry): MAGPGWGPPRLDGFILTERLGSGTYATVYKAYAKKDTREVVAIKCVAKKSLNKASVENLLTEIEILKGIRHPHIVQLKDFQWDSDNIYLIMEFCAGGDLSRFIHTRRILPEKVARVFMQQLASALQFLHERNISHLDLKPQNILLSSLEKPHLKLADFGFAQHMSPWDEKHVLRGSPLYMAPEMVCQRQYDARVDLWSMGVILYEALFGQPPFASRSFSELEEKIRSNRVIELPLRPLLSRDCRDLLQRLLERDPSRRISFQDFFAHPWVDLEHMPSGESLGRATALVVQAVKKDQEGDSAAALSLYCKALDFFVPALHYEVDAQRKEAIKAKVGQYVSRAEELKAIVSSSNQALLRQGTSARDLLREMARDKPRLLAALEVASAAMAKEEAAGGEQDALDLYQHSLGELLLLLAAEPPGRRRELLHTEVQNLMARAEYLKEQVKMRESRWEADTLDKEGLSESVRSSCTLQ
Experimental: as §1

TLK2(h) = TLK2(h) (Homo sapiens (Human), UniProt Q86UE8)
TLK2(h), sequence (Q86UE8 whole entry): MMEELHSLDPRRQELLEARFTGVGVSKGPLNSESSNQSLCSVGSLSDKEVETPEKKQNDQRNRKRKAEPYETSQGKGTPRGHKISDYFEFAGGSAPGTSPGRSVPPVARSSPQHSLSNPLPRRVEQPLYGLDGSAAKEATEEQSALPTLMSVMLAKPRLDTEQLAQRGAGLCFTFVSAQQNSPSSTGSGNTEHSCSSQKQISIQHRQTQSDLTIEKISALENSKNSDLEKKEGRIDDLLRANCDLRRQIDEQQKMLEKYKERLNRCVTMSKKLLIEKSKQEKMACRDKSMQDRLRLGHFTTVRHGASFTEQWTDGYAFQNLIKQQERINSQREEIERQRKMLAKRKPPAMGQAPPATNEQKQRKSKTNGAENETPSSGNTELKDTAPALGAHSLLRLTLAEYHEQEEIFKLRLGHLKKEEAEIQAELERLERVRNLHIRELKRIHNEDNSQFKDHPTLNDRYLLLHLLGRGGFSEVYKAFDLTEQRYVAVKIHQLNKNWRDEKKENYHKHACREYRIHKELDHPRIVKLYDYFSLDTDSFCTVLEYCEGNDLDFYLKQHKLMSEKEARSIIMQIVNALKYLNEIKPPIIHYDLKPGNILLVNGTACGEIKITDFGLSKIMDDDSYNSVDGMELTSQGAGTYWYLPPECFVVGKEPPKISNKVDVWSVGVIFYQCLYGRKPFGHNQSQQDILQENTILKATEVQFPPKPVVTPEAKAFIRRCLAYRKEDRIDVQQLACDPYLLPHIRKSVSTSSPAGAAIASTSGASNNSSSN
Experimental: as §1

DRAK1(h) = DRAK1(h) (Homo sapiens (Human), UniProt Q9UEE5)
Experimental: as §1

LIMK1(h) = LIMK1(h) (Homo sapiens (Human), UniProt P53667)
Experimental: as §1

CDK17/cyclinY(h) = CDK17/cyclinY(h) (Homo sapiens (Human), UniProt Q00537)
Experimental: as §1

NEK2(h) = NEK2(h) (Homo sapiens (Human), UniProt P51955)
NEK2(h), sequence (P51955 whole entry): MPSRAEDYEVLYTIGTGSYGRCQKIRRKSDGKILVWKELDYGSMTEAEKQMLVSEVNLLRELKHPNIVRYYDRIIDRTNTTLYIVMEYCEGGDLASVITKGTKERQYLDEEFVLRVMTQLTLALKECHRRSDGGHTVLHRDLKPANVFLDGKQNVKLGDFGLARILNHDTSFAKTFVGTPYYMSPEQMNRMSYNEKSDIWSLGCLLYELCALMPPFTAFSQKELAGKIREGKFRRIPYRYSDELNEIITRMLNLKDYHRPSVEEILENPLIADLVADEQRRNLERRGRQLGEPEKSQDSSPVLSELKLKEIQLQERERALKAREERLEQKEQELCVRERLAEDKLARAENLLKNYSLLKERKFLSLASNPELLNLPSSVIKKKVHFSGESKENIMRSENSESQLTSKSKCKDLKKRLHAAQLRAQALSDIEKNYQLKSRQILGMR
Experimental: as §1

FGFR4(h) = FGFR4(h) (Homo sapiens (Human), UniProt P22455)
Experimental: as §1

FGFR3(h) = FGFR3(h) (Homo sapiens (Human), UniProt P22607)
Experimental: as §1

CDK7/cyclinH/MAT1(h) = CDK7/cyclinH/MAT1(h) (Homo sapiens (Human), UniProt P50613)
Experimental: as §1

LTK(h) = LTK(h) (Homo sapiens (Human), UniProt P29376)
Experimental: as §1

PRP4(h) = PRP4(h) (Homo sapiens (Human), UniProt Q13523); type: biochemical
Experimental: as §1

Met(Y1248D)(h) = Met(Y1248D)(h) (Homo sapiens (Human), UniProt P08581, Y1230D)
Experimental: as §1

TSSK1(h) = TSSK1(h) (Homo sapiens (Human), UniProt Q9BXA7)
TSSK1(h), sequence (Q9BXA7 whole entry): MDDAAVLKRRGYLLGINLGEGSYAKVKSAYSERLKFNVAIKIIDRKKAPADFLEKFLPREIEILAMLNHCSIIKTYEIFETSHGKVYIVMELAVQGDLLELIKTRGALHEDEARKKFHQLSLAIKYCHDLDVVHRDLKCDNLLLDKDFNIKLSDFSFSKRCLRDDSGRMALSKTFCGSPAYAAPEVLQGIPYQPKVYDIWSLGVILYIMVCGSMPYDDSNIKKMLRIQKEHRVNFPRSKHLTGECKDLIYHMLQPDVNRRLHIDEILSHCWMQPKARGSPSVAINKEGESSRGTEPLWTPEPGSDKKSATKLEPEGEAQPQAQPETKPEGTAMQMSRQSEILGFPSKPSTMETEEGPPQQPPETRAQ
Experimental: as §1

WNK4(h) = WNK4(h) (Homo sapiens (Human), UniProt Q96J92)
Experimental: as §1

CDK14/cyclinY(h) = CDK14/cyclinY(h) (Homo sapiens (Human), UniProt O94921)
Experimental: as §1

ARK5(h) = ARK5(h) (Homo sapiens (Human), UniProt O60285)
Experimental: as §1

DDR2(h), sequence (Q16832 22-855): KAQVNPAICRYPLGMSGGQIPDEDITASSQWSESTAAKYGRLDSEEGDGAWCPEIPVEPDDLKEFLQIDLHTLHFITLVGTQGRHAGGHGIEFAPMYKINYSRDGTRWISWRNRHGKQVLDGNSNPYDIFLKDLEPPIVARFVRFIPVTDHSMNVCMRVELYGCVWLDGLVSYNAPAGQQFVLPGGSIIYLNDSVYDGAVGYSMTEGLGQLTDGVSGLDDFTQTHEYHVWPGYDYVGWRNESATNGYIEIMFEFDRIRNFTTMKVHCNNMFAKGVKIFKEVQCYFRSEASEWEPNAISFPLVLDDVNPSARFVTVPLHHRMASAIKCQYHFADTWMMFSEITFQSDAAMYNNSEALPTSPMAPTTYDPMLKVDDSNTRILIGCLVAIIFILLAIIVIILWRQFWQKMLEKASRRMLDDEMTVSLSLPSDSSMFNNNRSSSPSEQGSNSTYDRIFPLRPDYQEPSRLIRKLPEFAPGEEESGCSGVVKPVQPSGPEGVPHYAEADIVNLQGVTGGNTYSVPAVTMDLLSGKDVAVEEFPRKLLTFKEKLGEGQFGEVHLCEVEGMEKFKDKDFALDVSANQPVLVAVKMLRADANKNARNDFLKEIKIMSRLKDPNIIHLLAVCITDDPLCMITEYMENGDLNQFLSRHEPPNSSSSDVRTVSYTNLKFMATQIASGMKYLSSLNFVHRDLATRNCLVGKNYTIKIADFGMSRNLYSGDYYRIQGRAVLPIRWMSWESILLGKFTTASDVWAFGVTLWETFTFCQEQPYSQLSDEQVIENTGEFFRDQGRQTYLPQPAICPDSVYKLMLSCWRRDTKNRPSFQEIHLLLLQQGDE

## C[C@H](NC(=O)c1c[nH]c2ccc(-c3ccc4nc(NC(=O)C5CC5)sc4c3)cc12)c1cccc(F)c1 [Compound 34, (S)-5-(2-(cyclopropanecarboxamido)benzo[d]thiazol-6-yl)-N-(1-(3-fluorophenyl)ethyl)-1H-indole-3-carboxamide]
FGFR2(h)
  Inhibition ratio: 63%
CK1ϵ(h)
  Inhibition ratio: 35%
CK1γ3(h)
  Inhibition ratio: −15%
DDR2(h)
  Inhibition ratio: 76%
CLIK1(h)
  Inhibition ratio: 22%
TLK1(h)
  Inhibition ratio: 19%
SGK3(h)
  Inhibition ratio: −1%
CLK3(h)
  Inhibition ratio: 35%
[1]
  Inhibition ratio: 23%
PAK3(h)
  Inhibition ratio: −1%
PKAcβ(h)
  Inhibition ratio: −4%
CDK2/cyclinA(h)
  Inhibition ratio: 11%
SBK1(h)
  Inhibition ratio: −12%
TAO2(h)
  Inhibition ratio: 58%
Bmx(h)
  Inhibition ratio: 54%
PKCδ(h)
  Inhibition ratio: 7%
CK1δ(h)
  Inhibition ratio: 33%
eEF-2K(h)
  Inhibition ratio: −41%
ULK3(h)
  Inhibition ratio: 30%
TLK2(h)
  Inhibition ratio: 5%
DRAK1(h)
  Inhibition ratio: 38%
LIMK1(h)
  Inhibition ratio: 14%
CDK17/cyclinY(h)
  Inhibition ratio: −11%
NEK2(h)
  Inhibition ratio: 21%
FGFR4(h)
  Inhibition ratio: 5%
FGFR3(h)
  Inhibition ratio: 35%
CDK7/cyclinH/MAT1(h)
  Inhibition ratio: 3%
LTK(h)
  Inhibition ratio: 23%
PRP4(h)
  Inhibition ratio: 4%
Met(Y1248D)(h)
  Inhibition ratio: 99%
TSSK1(h)
  Inhibition ratio: 12%
WNK4(h)
  Inhibition ratio: 17%
CDK14/cyclinY(h)
  Inhibition ratio: 47%
ARK5(h)
  Inhibition ratio: 43%

## C[C@H](NC(=O)c1cn(C)c2ccc(-c3ccn4nc(NC(=O)C5CC5)nc4c3)cc12)c1cccc(F)c1 [Compound 94, (S)-5-(2-(cyclopropanecarboxamido)-[1,2,4]triazolo[1,5-a]pyridin-7-yl)-N-(1-(3-fluorophenyl)ethyl)-1-methyl-1H-indole-3-carboxamide]
FGFR2(h)
  Inhibition ratio/%: −13%
CK1ϵ(h)
  Inhibition ratio/%: 59%
CK1γ3(h)
  Inhibition ratio/%: −10%
DDR2(h)
  Inhibition ratio/%: 20%
CLIK1(h)
  Inhibition ratio/%: 22%
TLK1(h)
  Inhibition ratio/%: 11%
SGK3(h)
  Inhibition ratio/%: 41%
CLK3(h)
  Inhibition ratio/%: 35%
[1]
  Inhibition ratio/%: 3%
PAK3(h)
  Inhibition ratio/%: −19%
PKAcβ(h)
  Inhibition ratio/%: 40%
CDK2/cyclinA(h)
  Inhibition ratio/%: 24%
SBK1(h)
  Inhibition ratio/%: −19%
TAO2(h)
  Inhibition ratio/%: −14%
Bmx(h)
  Inhibition ratio/%: 34%
PKCδ(h)
  Inhibition ratio/%: 48%
CK1δ(h)
  Inhibition ratio/%: −12%
eEF-2K(h)
  Inhibition ratio/%: 26%
ULK3(h)
  Inhibition ratio/%: 3%
TLK2(h)
  Inhibition ratio/%: 25%
DRAK1(h)
  Inhibition ratio/%: 30%
LIMK1(h)
  Inhibition ratio/%: −1%
CDK17/cyclinY(h)
  Inhibition ratio/%: 70%
NEK2(h)
  Inhibition ratio/%: 24%
FGFR4(h)
  Inhibition ratio/%: 37%
FGFR3(h)
  Inhibition ratio/%: 40%
CDK7/cyclinH/MAT1(h)
  Inhibition ratio/%: 53%
LTK(h)
  Inhibition ratio/%: 5%
PRP4(h)
  Inhibition ratio/%: 5%
Met(Y1248D)(h)
  Inhibition ratio/%: 13%
TSSK1(h)
  Inhibition ratio/%: −8%
WNK4(h)
  Inhibition ratio/%: 48%
CDK14/cyclinY(h)
  Inhibition ratio/%: 55%
ARK5(h)
  Inhibition ratio/%: 8%

From US20230365546A1, “5-SUBSTITUTED INDOLE 3-AMIDE DERIVATIVES, PREPARATION METHOD AND USE THEREOF” (ORIGIANT PHARMACEUTICAL CO., LTD, priority 2020, published 2023)
